# T1: collagen IV NC1 hexamer (Mus musculus, UniProt P02463+P08122)
# T1 sequence (P02463 1445-1669 limits assumed): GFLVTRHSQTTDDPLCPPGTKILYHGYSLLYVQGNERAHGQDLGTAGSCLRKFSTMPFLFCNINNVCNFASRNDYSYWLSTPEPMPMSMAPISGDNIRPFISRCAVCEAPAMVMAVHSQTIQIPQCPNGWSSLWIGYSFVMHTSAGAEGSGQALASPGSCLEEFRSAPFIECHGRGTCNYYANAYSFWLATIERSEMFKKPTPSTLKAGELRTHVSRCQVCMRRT
# T1 sequence (P08122 1484-1707 limits assumed): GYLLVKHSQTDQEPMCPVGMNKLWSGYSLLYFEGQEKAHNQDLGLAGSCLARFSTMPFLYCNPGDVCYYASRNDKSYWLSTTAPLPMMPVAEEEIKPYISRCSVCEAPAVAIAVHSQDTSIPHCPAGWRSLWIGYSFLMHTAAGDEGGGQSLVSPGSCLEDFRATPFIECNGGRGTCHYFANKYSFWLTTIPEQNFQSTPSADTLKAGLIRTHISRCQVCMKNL
# Columns and labels:
# [1] = HOBr versus HOCl, methionine to dehydromethionine; cited from earlier work
# [2] = target: T1, collagen IV NC1 hexamer; assay: Hypohalous acid oxidation of purified uncrosslinked NC1 hexamer; conditions: for crosslinked dimeric subunits (percentage of dimeric subunit): 500 nM NC1 hexamer, 5 μM hypohalous acid, 30 min at 37° C. (FIG. 4A)
# Protocol: (FIG. 4A) Five hundred nanomolar collagen IV NC1 hexamer (3 μM potential crosslinks) was incubated alone (control) or with 5 μM hypochlorous (HOCl) or hypobromous acid (HOBr) for 30 min at 37° C. […] (FIGS. 4B-D) 16 nM myeloperoxidase (MPO) (FIG. 4B), eosinophil peroxidase (EPO) (FIG. 4C) or lactoperoxidase (LPO) (FIG. 4D) were reacted with 500 nM NC1 hexamer (3 μM potential crosslinks) for varying time points in 1×PBS with or without 10 μM H2O2. In the case of LPO, all reactions proceeded for 60 min. Collagen IV-sulfilimine crosslink content was visualized after SDS-PAGE and Coomassie blue staining of the reactions. Each gel is representative of three independent experiments. PHG, phloroglucinol; MW, molecular weight.
# FIGS. 9A-D. Chemical mechanism of sulfilimine formation within the NC1 hexamer. (FIG. 9A) Purified uncrosslinked NC1 hexamer (5 μM) was reacted for 5 minutes at 37° with the indicated amounts of hypohalous acids and analyzed by SDS-PAGE. […] Values represent mean±S.D. (n=3). (FIG. 7B) Uncrosslinked NC1 hexamer (1.3 μM) in Br-Free PBS was preoxidzed with indicated amounts of HOCl for 1 min at 37 C, followed by post-oxidation with the addition of 8 mol eq. HOBr (or HOCl as a control) which was reacted for an additional minute at 37° C., then quenched with 20 mM methionine. Gel is representative of two experiments (FIG. 9C) XIC analysis of the residual monomeric NC1 subunit following HOCl oxidation (10 mol eq) compared to input NC1 monomer after SDS-PAGE and in-gel trypsin digestion. ^16O addition to the methionine residues was confirmed by MS3 analysis. (FIG. 9D) Met93 oxidation pathway consistent with experimental data and the resultant enthalphic landscape for S═N bond formation within the NC1 hexamer.
# (FIG. 15) Fifty micromolar of hypohalous oxidants were added to 5 μM uncrosslinked NC1 domains, and reacted for 5 minutes at 37° C. before quenching by adding L-methionine to 1 mM final concentration. […] Experiments were run in triplicate and analyzed by 12% non-reducing SDS-PAGE and ImageJ.
# The efficiency of HOBr as a reagent was compared to other hypohalous acids, during a 5′ reaction with uncrosslinked hexamers containing 5 μM NC1 domains.
# The inventors therefore tested the molar efficiency of oxidation of purified uncrosslinked NC1 hexamer with HOCl and HOBr (FIG. 9A). […] To test this, they pretreated uncrosslinked NC1 hexamer with varying concentrations of HOCl, then treated with HOBr. […] As an independent approach to testing the dead-end sulfoxide hypothesis, the inventors pretreated NC1 hexamer with escalating levels of H2O2, a reagent known to generate methionine sulfoxides (Liang et al., 2012). […] They next decided to directly visualize the peptide containing Met93, the S donor of the S═N bond, within the residual monomeric NC1 fraction after HOCl oxidation and compare its oxidation status to untreated NC1 hexamer.
# [3] = tested on: collagen IV NC1 hexamer; assay: Purified peroxidases reacted with uncrosslinked NC1 hexamer and H2O2; format: biochemical, mouse; conditions: 16 nM enzyme, 500 nM NC1 hexamer, 10 μM H2O2, 1×PBS
# Protocol: (§1) (FIG. 3A) SDS-PAGE of reactions consisting of 16 nM purified human peroxidasin (PXDN), 500 nM monomeric NC1 hexamer (3 μM potential crosslinks) and 10 μM H2O2 in 1×PBS. Control reactions without H2O2 or in the presence of the peroxidase inhibitor phloroglucinol (PHG; 50 μM) were also conducted. D represents crosslinked dimeric NC1 subunits, and M denotes uncrosslinked monomeric subunits. MW, molecular weight. (FIG. 3B) Coomassie blue-stained gel after SDS-PAGE of collagen IVNC1 hexamer is shown to illustrate relative amounts of sulfilimine-crosslinked dimeric (D) and uncrosslinked monomeric (M) subunits after incubation of uncrosslinked PFHR-9 basement membranes in varying buffer halide concentrations (Br— or Cl— as K+ salt) with or without 1 mM H2O2. (FIG. 3C) PXDN-mediated hypohalous acid (HOX) production expressed as nmol hypohalous acid generated per nmol enzyme per min, measured in 1×PBS plus 100 μM NaBr. Values represent mean±s.e.m. (n=3). (FIG. 3D) HOCl production measured directly in 1×PBS without added Br—. Values denote mean±s.e.m. (n=4). […] (FIG. 3E) HOX production, measured in nmol HOX generated per nmol enzyme per min for myeloperoxidase (MPO), eosinophil peroxidase (EPO) or LPO in 1×PBS plus 100 μM NaBr. Values represent mean±s.e.m. (n=3).
# PHG, phloroglucinol; MW, molecular weight.
# If peroxidasin uses hypohalous acids as intermediates to form sulfilimine bonds, these intermediates should recapitulate the reaction when directly added to purified, uncrosslinked collagen IV NC1 hexamer. […] Alternatively, other peroxidasesis provided to form reactive hypohalous acids.
# [4] = Hypohalous acid production by peroxidases (taurine haloamine trapping); format: biochemical; conditions: 1×PBS plus 100 μM NaBr or without added Br—
# Protocol: as §1
# Hypohalous acids were trapped as stable taurine haloamines, which oxidize tetramethylbenzidine to yield a colorimetric measure of hypohalous acid concentration and production (Dypbukt et al., 2005).
# Animal heme peroxidases, such as peroxidasin, myeloperoxidase, eosinophil peroxidase and lactoperoxidase, catalyze oxidative reactions using distinct halogenation and peroxidase cycles (Obinger, 2006). Both begin with hydrogen peroxide oxidation of the prosthetic heme iron to form an intermediate denoted compound I (Obinger, 2006). Compound I may oxidize halides into their respective hypohalous acids (or related oxidants in equilibrium), which may directly or indirectly halogenate susceptible moieties. Alternatively, compound I undergoes sequential reduction to form single electron-free radicals of energetically favorable substrates in the peroxidase cycle. Both pathways eventually regenerate reduced, native enzyme (Obinger, 2006). To determine whether peroxidasin forms sulfilimine bonds using a halogenation cycle, the inventors first tested whether peroxidasin crosslinks collagen IV in the absence of halides.
# [5] = Peroxidase activity of media from transfected cells (tetramethylbenzidine colorimetric assay); format: biochemical; conditions: media of transiently transfected HEK293T cells
# Protocol: FIGS. 5A-D—Peroxidasin uniquely crosslinks native collagen IV networks. (FIG. 5A) Experimental design of ‘overlay’ experiments. PFHR-9 cells were grown in the presence of phloroglucinol (PHG; 50 μM) to deposit uncrosslinked collagen IV (Col IV) networks. The cells were then removed, and the basement membrane was extracted with 4 M guanidine (Gdn) to inactivate endogenous peroxidasin. Cells stably transfected with human peroxidasin (PXDN) or untransfected HEK293 cells (WT HEK) were plated on top of the PFHR9 basement membrane, which was subsequently analyzed for collagen IV crosslink content. (FIG. 5B) Collagen IV-sulfilimine bond formation in the indicated experimental conditions as shown by stained SDS-PAGE gel. Two (WT HEK cells) or three (PXDN, with or without PHG) out of five independent experiments are shown. MW, molecular weight. (FIG. 5C) Coomassie blue-stained gel of collagen IVNC1 hexamers isolated from uncrosslinked PFHR-9 basement membrane overlaid with HEK293T cells transiently transfected with human peroxidasin cDNA, mouse myeloperoxidase cDNA (MPO), mouse lactoperoxidase cDNA (LPO) or empty vector (Mock). (FIG. 5D) Media from PXDN, MPO, LPO and mock-transfected cells were assayed for peroxidase activity using a tetramethylbenzidine-based colorimetric assay. Activity was expressed relative to peroxidasin (A650 of given peroxidase divided by A650 for peroxidasin). […]
Molecule,effectiveness at forming a sulfilimine bond [1],crosslinked dimeric subunits (percentage of dimeric subunit) [2],crosslinked dimeric subunits (percentage of dimeric subunit) ([2]; listed as hypobromous acid),"dimer formation, molar efficiency of oxidation ([2]; 5 μM NC1 hexamer, 5 minutes at 37° (FIG. 9A))","efficiency versus other hypohalous acids in forming sulfilimine bonds ([2]; 5 min reaction, 5 μM NC1 domains)","S═N bond formation as share of total Met93 oxidized ([2]; oxidation event 1 (OE1), S—Cl or S—Br halosulfonium intermediate)",formation of sulfilimine crosslinks in NC1 hexamer [3],hypohalous acid formation [4],enzymatic activity relative to peroxidasin [5]
"OBr [HOBr, hypobromous acid]",approximately twice as effective as HOCl,increased significantly,yielded crosslinked dimeric subunits,efficiently formed dimers even at parity with NC1 concentrations,superior to all other examined reagents,56.1%,–,–,–
"myeloperoxidase: animal heme peroxidase used as comparator (protein, UniProt P05164 165-745, looked up) Myeloperoxidase: VTCPEQDKYRTITGMCNNRRSPTLGASNRAFVRWLPAEYEDGFSLPYGWTPGVKRNGFPVALARAVSNEIVRFPTDQLTPDQERSLMFMQWGQLLDHDLDFTPEPAARASFVTGVNCETSCVQQPPCFPLKIPPNDPRIKNQADCIPFFRSCPACPGSNITIRNQINALTSFVDASMVYGSEEPLARNLRNMSNQLGLLAVNQRFQDNGRALLPFDNLHDDPCLLTNRSARIPCFLAGDTRSSEMPELTSMHTLLLREHNRLATELKSLNPRWDGERLYQEARKIVGAMVQIITYRDYLPLVLGPTAMRKYLPTYRSYNDSVDPRIANVFTNAFRYGHTLIQPFMFRLDNRYQPMEPNPRVPLSRVFFASWRVVLEGGIDPILRGLMATPAKLNRQNQIAVDEIRERLFEQVMRIGLDLPALNMQRSRDHGLPGYNAWRRFCGLPQPETVGQLGTVLRNLKLARKLMEQYGTPNNIDIWMGGVSEPLKRKGRVGPLLACIIGTQFRKLRDGDRFWWENEGVFSMQQRQALAQISLPRIICDNTGITTVSKNNIFMSNSYPRDFVNCSTLPALNLASWREAS",–,–,–,–,–,–,formed sulfilimine crosslinks in collagen IV,preferentially formed hypochlorous acid,at least 30 fold

# Source: patent US10183039B2, “Methods for the production of collagen IV” (Vanderbilt University, priority 2013, dated 2019)
